Data set [1] is described as follows: Ratio of drug level in thalamus to cerebellum in baboon after 180 mins. Format: ADME, tissue-based. As to conditions: papio hamadryas, in vivo, 3 h.
The nature of data set [2]: Ratio of drug level in pans to cerebellum in baboon after 180 mins. Format: ADME, tissue-based. As to conditions: papio hamadryas, in vivo, 3 h.
Data set [3] is described as follows: Ratio of drug level in frontal cortex to cerebellum in baboon after 180 mins. In kind it is ADME, tissue-based. As to conditions: papio hamadryas, in vivo, 3 h.
A short description of data set [4]: Ratio of drug level in thalamus to cerebellum in Wistar rat after 90 mins. Format: ADME, tissue-based. As to conditions: in vivo, 1.5 h.
A short description of another data set: physchem. The conditions noted are these: octanol/water, pH 7.4.
The test system of data set [5] is Mus musculus. Briefly: Toxicity assessed as induction of death in CD1 mouse at 2 umol/kg. The conditions noted are these: in vivo. In kind it is organism-based.
The subject of data set [6] is Mus musculus. Briefly: Induction of fast breathing in CD1 mouse at 2 umol/kg. In kind it is functional, organism-based.
In data set [7] the test system is Mus musculus. Briefly: Induction of straub tail in CD1 mouse at 2 umol/kg. In kind it is functional, organism-based.

Activity calls are given as the source filed them. The rule behind the calls is not given here.

This note sets out measurements from ChEMBL document CHEMBL1148709, “Derivatives of (-)-7-methyl-2-(5-(pyridinyl)pyridin-3-yl)-7-azabicyclo[2.2.1]heptane are potential ligands for positron emission tomography imaging of extrathalamic nicotinic acetylcholine receptors” (J Med Chem, 2007).

Description for physchem: Distribution coefficient, log D at pH 7.4 by shake-flask method

For the compound `CN1[C@@H]2CC[C@@H]1[C@@H](c1cncc(-c3ccc([18F])nc3)c1)C2`, the results for the Ratio in data set [1], in data set [2] and in data set [3] were 6, 2.4 and 2.4, respectively.
Regarding `[11CH3]N1[C@@H]2CC[C@@H]1[C@@H](c1cnc(Cl)c(-c3ccnc(F)c3)c1)C2`, in data set [4], the Ratio is on record as 6.5.
Consider `Fc1ccc(-c2cc([C@H]3C[C@H]4CC[C@H]3N4)cnc2Cl)cn1` (racemic), for which, in the data set “physchem”, the logD stood at 0.68.
`CN1[C@@H]2CC[C@@H]1[C@@H](c1cnc(F)c(-c3ccc(F)nc3)c1)C2` (racemic) registered a pH-dependent lipophilicity (logD) in “physchem” of 0.96.
Same read-out and setting: the result for `CN1[C@@H]2CC[C@@H]1[C@@H](c1cncc(-c3ccc(F)nc3)c1)C2` (racemic) reads 0.45; that for `CN1[C@@H]2CC[C@@H]1[C@@H](c1cnc(F)c(-c3ccc(C#N)nc3)c1)C2` (racemic), 0.64.
Still for that read-out and setting: the result for `CN1[C@@H]2CC[C@@H]1[C@@H](c1cnc(Cl)c(-c3ccnc(F)c3)c1)C2` (racemic) reads 1.26.
`[11CH3]N1[C@@H]2CC[C@@H]1[C@@H](c1cnc(Cl)c(-c3ccnc(F)c3)c1)C2` (racemic): in data set [4], the Ratio amounted to 2.2.
Compound `CN1[C@@H]2CC[C@@H]1[C@@H](c1cnc(Cl)c(-c3ccc(F)nc3)c1)C2` (single isomer, unassigned) yielded a logD in “physchem” of 1.42.
For the compound `CN1[C@@H]2CC[C@@H]1[C@@H](c1cncc(-c3ccc(F)nc3)c1)C2` (stereo in doubt; (-)-24d) [listing 1 of 2 here], in the data set on Mus musculus [5], the Activity entry is “Non-toxic”.
Consider `CN1[C@@H]2CC[C@@H]1[C@@H](c1cncc(-c3ccc(F)nc3)c1)C2` (stereo in doubt; (-)-24d) [listing 2 of 2 here], for which the result with Mus musculus [6] and in the data set with Mus musculus [7] was Active.

The term logD denotes lipophilicity at a set pH, counting ionised and neutral species.
